Experiments:
ZAC [1] = biological target: T1, ZAC (Homo sapiens, UniProt Q401N2); test: TEVC recordings, Zn2+-evoked currents at ZAC expressed in Xenopus oocytes; format: cell-based; details: for Antagonist activity at ZAC in SAR study (in words): tested at three concentrations (0.3-3-30 μM or 1-10-100 μM); for IC50: steady-state current, read-out: pIC50 ± S.E.M. (converted)
T1 sequence (Q401N2 26-412): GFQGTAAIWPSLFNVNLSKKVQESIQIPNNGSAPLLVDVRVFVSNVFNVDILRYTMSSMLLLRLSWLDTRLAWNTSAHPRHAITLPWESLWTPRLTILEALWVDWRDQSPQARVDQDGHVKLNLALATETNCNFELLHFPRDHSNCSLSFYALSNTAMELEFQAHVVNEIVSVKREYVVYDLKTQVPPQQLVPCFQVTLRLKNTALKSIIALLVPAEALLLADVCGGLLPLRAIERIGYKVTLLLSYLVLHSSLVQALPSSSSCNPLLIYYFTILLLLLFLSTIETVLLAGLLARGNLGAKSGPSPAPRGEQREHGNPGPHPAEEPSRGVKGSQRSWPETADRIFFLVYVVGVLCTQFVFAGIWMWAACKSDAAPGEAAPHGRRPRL
Experimental: (§1) The cDNAs for the various WT and chimeric CLR subunits were linearized and subsequently transcribed and capped mMessage mMachine T7 RNA transcription kit (Ambion, Waltham, MA). Different amounts of cRNA mixtures were injected for ZAC (9.2–36.8 nL in a concentration of 0.05 μg/μL), […] nAChR (9.2–36.8 nL in a concentration of 0.1 μg/μL of each subunit in a ratio of 1:1), hα1 GlyR (9.2–36.8 nL in a concentration of 0.05 μg/μL), hα1β2γ2s GABAAR (9.2–36.8 nL in a concentration of 0.05 μg/μL of each subunit in a ratio of 1:1:3), m5-HT3AR (9.2–36.8 nL in a concentration of 0.05 μg/μL), m5-HT3A/ZAC (9.2–36.8 nL in a concentration of 0.207 μg/μL), and ZAC/hai-Gly (9.2–36.8 nL in a concentration of 0.206 μg/μL). Oocytes were incubated in a sterile modified Barth’s solution [88 mM NaCl, 1 mM KCl, 15 mM HEPES (pH 7.5), 2.4 mM NaHCO3, 0.41 mM CaCl2, 0.82 mM MgSO4, 0.3 mM Ca(NO3)2, 100 U/ml penicillin and 100 μg/ml strep-tomycin] at 18 °C for 2 days after injection.
(§2) On the day of experiment, all compound dilutions were prepared in a saline solution [115 mM NaCl, 2.5 mM KCl, 10 mM MOPS (pH 7.5), 1.8 mM CaCl2, 0.1 mM MgCl2] and pH adjusted to 7.5 (if needed). Oocytes were placed in a recording chamber continuously perfused with this saline solution, and the compounds were applied in the perfusate. Both voltage and current electrodes were agar-plugged with 3 M KCl with a resistance of 0.2–2.0 MΩ. Oocytes were voltage-clamped at −50 mV (unless otherwise stated) by a Gene Clamp 500B amplifier (Axon Instruments, Union City, CA), while current signals were digitized by a Digidata 1320. Currents were recorded using pCLAMP 10 (Molecular Devices, Sunnyvale, CA). The recordings were performed at room temperature.
In all recordings, the compounds or compound combinations were applied in the bath until the peak current decayed to a steady state (up to 30 sec at the most). […] The functional properties of the modulators at the CLRs were determined by pre-application of the modulator to the perfusate 30 sec and followed by co-application of the modulator and the agonist to the perfusate. In all recordings, washes of 1–5 min were executed between the applications to prevent receptor desensitization, the duration of these washes depending on the kinetics of the respective receptors and the “stickyness” of the respective compounds. […] For the selectivity and mode-of-action studies, the agonist concentrations used for different CLRs or chimeric CLRs were in the EC20–EC40 range (verified on the day of experiment), as this enabled us to investigate both for putative positive and negative receptor modulation exerted by TTFB (hα3β4 nAChR, 3 μM (S)-nicotine; m5-HT3AR, 2 μM 5-HT; hα1 GlyR, 100 μM glycine; hα1β2γ2S GABAAR, 30 μM GABA; m5-HT3A/ZAC, 0.3 μM 5-HT; ZAC/hɑ1-Gly, 2 μM Zn^2+).
Data analysis of the results from the TEVC recordings were performed using Clampfit software version 10.5 (Molecular Devices, Crawley, UK) and GraphPad Prism version 7.0c (GraphPad Software, Inc. La Jolla, CA). Data for the test compounds were normalized to either the maximal agonist-evoked current or to an EC20–EC50-mediated response elicited by the agonist on each oocyte (specified in each case). Unless otherwise stated, data for agonist-induced responses in the presence of the antagonists were extracted from the plateau (or steady-state) of the agonist-evoked current. Concentration-response and concentration-inhibition curves were fitted in GraphPad Prism by nonlinear regression using the equation for sigmoidal dose-response with variable slope. I-V relationships were analyzed by fitting the curves with a third order polynomial model. Each data point represents the mean ± S.E.M. value of recordings performed on at least five oocytes from at least two different batches.

ZAC [2] = biological target: T1, ZAC; test: TEVC recordings, spontaneous ZAC activity in Xenopus oocytes; format: cell-based; details: for IC50: block of spontaneous ZAC activity (leak current), TEVC
Experimental: as §1, §2
In all recordings, the compounds or compound combinations were applied in the bath until the peak current decayed to a steady state (up to 30 sec at the most). […] The functional properties of the modulators at the CLRs were determined by pre-application of the modulator to the perfusate 30 sec and followed by co-application of the modulator and the agonist to the perfusate. In all recordings, washes of 1–5 min were executed between the applications to prevent receptor desensitization, the duration of these washes depending on the kinetics of the respective receptors and the “stickyness” of the respective compounds. […]
(§3) Data analysis of the results from the TEVC recordings were performed using Clampfit software version 10.5 (Molecular Devices, Crawley, UK) and GraphPad Prism version 7.0c (GraphPad Software, Inc. La Jolla, CA). […] I-V relationships were analyzed by fitting the curves with a third order polynomial model. […]

m5-HT3A/ZAC = test: TEVC, chimeric m5-HT3A/ZAC receptor in oocytes; format: cell-based, mouse/human; details: 30 μM, 0.3 μM 5-HT
Experimental: The cDNAs for the various WT and chimeric CLR subunits were linearized and subsequently transcribed and capped mMessage mMachine T7 RNA transcription kit (Ambion, Waltham, MA). […]
On the day of experiment, all compound dilutions were prepared in a saline solution [115 mM NaCl, 2.5 mM KCl, 10 mM MOPS (pH 7.5), 1.8 mM CaCl2, 0.1 mM MgCl2] and pH adjusted to 7.5 (if needed). […] Currents were recorded using pCLAMP 10 (Molecular Devices, Sunnyvale, CA). […]
In all recordings, the compounds or compound combinations were applied in the bath until the peak current decayed to a steady state (up to 30 sec at the most). […] The functional properties of the modulators at the CLRs were determined by pre-application of the modulator to the perfusate 30 sec and followed by co-application of the modulator and the agonist to the perfusate. […]
as §3

Inhibition of ZAC at 10 μM (in words) (ZAC [1]; 10 μM compound, 1 mM Zn2+ as agonist) | Antagonist activity at ZAC in SAR study (in words) (ZAC [1]; 1 mM Zn2+ as agonist) | Fitted inhibition range, Inhibition (%) (ZAC [1]; Zn2+ (1 mM) as agonist, TEVC) | Hill coefficient nH ± S.E.M. (ZAC [1]; Zn2+ (1 mM) as agonist, TEVC) | IC50 (ZAC [1]; Zn2+ (1 mM) as agonist, TEVC) [µM] | Extent of inhibition of Zn2+-induced responses (in words) (ZAC [1]; Zn2+ (1 mM), full concentration-inhibition curves) | Equilibrium potential (ZAC [2]; TTFB (100 μM)-induced currents, holding potentials −60 mV to +60 mV) [mV] | IC50 (ZAC [2]; read-out: IC50) [µM] | IC50 (ZAC [2]; read-out: pIC50 ± S.E.M. (converted)) [µM] | Modulation of 5-HT-induced response (m5-HT3A/ZAC) | Mode of antagonism (ZAC [1]; Zn2+ concentration-response curves in absence and presence of various concentrations of the compound) | Structure (SMILES)
almost complete inhibition | roughly equipotent with 2b | 91 ± 3 | −1.5 ± 0.08 | 3.02 | completely | −11.5 | 4.7 | 4.79 | complete inhibition | – | CC(C)(C)c1csc(NC(=O)c2cccc(F)c2)n1 [5a, N-(4-(tert-butyl)thiazol-2-yl)-3-fluorobenzamide]
– | weaker antagonists | – | −1.3 ± 0.13 | 4.07 | – | – | 7.4 | – | – | largely non-competitive | COC(=O)c1sc(NC(=O)c2cc(Br)ccc2Cl)nc1C [compound 1, 2-(5-bromo-2-chlorobenzamido)-4-methylthiazole-5-methyl ester]

From paper PMC9979163, “Discovery and functional characterization of N-(thiazol-2-yl)-benzamide analogs as the first class of selective antagonists of the Zinc-Activated Channel (ZAC)” (Biochemical pharmacology, 2021)
